This note sets out measurements from US20230072421A1, “TARGETED RADIOPHARMACEUTICALS FOR THE DIAGNOSIS AND TREATMENT OF PROSTATE CANCER” (Bayer AS, priority 2019, published 2023).

For this experiment, the target named is T1, PSMA-expressing LNCaP cells (Homo sapiens, UniProt Q04609).
T1 construct: PSMA-expressing LNCaP cells; endogenous in cells; host or cells: LNCaP
In words: Binding competition assay against 3H-PSMA-617 on LNCaP cells. Particulars: LNCaP cells, 10 nM 3H-PSMA-617, 2 h at 37° C., triplicates. How it is done: Cells were incubated at 37° C. and 5% CO2 over night. […] After addition of the compounds in growth media the cells were swiveled slightly on a shaker mixing for 10 min followed by incubation for 2 h at 37° C., 5% C02. Following the incubation time the supernatant was removed by pipetting and cells were washed twice with ice cold PBS (total of 800 μl). Cells were lysed in 500 μl of 0.3M NaOH (PanReac AppliChem ITW Reagents) by vigorous shaking for 15 min and the cell lysated pipetted into scintillator tubes (S207-[…]® Scintillation Vials 6.5 ml #S207, Simport). In the following the wells were washed with 500 μl PBS and the washing PBS added to the corresponding samples in the sincitallator tubes. To each sample in the scintillator tubes 4 mL of Ultima Gold liquid scintillation cocktail (Sigma-Aldrich #L8286) was added and the samples let stand for at least 30 min. Thereafter radioactivity was counted in a Tri-Carb Liquid Scinzillation Analyzer (Perkin Elmer).

[1] abbreviates: competing non-radiolabeled compound 10 nM.
Setting [2] is: competing non-radiolabeled compound 100 nM.

Usually remaining activity stands for the signal under treatment as a percentage of the control signal.

T1 sequence (Q04609 whole entry): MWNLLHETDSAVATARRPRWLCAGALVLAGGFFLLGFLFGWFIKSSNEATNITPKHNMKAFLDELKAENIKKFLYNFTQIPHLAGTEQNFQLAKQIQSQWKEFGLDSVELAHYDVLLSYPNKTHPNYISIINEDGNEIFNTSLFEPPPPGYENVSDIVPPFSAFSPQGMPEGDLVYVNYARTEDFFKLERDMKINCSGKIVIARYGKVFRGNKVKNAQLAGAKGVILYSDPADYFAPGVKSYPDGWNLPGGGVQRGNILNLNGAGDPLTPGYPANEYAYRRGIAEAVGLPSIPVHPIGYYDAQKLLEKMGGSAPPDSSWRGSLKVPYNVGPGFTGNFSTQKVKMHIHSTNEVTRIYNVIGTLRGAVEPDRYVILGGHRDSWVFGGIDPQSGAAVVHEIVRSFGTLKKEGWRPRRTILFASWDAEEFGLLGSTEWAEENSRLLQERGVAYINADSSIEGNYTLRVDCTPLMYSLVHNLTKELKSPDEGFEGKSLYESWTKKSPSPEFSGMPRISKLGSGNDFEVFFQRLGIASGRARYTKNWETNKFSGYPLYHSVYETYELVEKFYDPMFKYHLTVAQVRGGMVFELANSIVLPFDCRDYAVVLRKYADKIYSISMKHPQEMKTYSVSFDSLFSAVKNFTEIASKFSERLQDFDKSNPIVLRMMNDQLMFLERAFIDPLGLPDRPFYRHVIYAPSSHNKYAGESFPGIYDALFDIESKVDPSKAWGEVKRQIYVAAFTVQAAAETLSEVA

Regarding `NCc1ccc(C(=O)N[C@@H](Cc2ccc3ccccc3c2)C(=O)NCCCC[C@H](NC(=O)N[C@H](CCC(=O)O)C(=O)O)C(=O)O)nc1` [Example 25-A-D, (3S,10S,14R)-1-[5-(aminomethyl)pyridin-2-yl]-3-[(naphthalen-2-yl)methyl]-1,4,12-trioxo-2,5,11,13-tetraazahexadecane-10,14,16-tricarboxylic acid], under setting [1], the remaining activity at 0.01 µM came to 79%. Besides, under setting [2], the remaining activity at 0.1 µM stood at 67%.
For `NC[C@H]1CC[C@H](C(=O)N[C@@H](CCCNC(=O)c2cnccn2)C(=O)NCCCC[C@H](NC(=O)N[C@@H](CCC(=O)O)C(=O)O)C(=O)O)CC1` [Example 20-A, N^6—{N^2-[(1r,4S)-4-(aminomethyl)cyclohexane-1-carbonyl]-N^5-(pyrazine-2-carbonyl)-L-ornithyl}-N^2-{[(1S)-1,3-dicarboxypropyl]carbamoyl}-L-lysine] the same measures were 88% and 82%.
For `O=C(O)CC[C@H](NC(=O)N[C@@H](CCCCNC(=O)[C@@H](Cc1ccc2cnccc2c1)NC(=O)[C@H]1CC[C@H](CNC(=O)CN2CCN(CC(=O)O)CCN(CC(=O)O)CCN(CC(=O)O)CC2)CC1)C(=O)O)C(=O)O` [Example 44-B, (3R,10S,14S)-3-[(isoquinolin-6-yl)methyl]-1,4,12-trioxo-1-[(1r,4S)-4-({2-[4,7,10-tris(carboxymethyl)-1,4,7,10-tetraazacyclododecan-1-yl]acetamido}methyl)cyclohexyl]-2,5,11,13-tetraazahexadecane-10,14,16-tricarboxylic acid] the same measures were 75% and 22%.
As for `CC(=O)NCCCC[C@H](NC(=O)[C@H]1CC[C@H](CN)CC1)C(=O)NCCCC[C@H](NC(=O)N[C@@H](CCC(=O)O)C(=O)O)C(=O)O` [Example 11-A, N^6—{N^6-acetyl-N^2-[(1r,4S)-4-(aminomethyl)cyclohexane-1-carbonyl]-L-lysyl}-N^2-{[(1S)-1,3-dicarboxypropyl]carbamoyl}-L-lysine], the remaining activity at 0.01 µM under setting [1] is 117%. Moreover, under setting [2], the remaining activity at 0.1 µM came to 146%.
Consider `O=C(O)CC[C@H](NC(=O)N[C@@H](CCCCNC(=O)[C@H](Cc1ccc2ccccc2c1)NC(=O)[C@H]1CC[C@H](CNC(=O)C[N+]23CC[N+]45CC[N+]67CC[N+]8(CC2)CC(=O)[O][Th]3486([O]C(=O)C5)[O]C(=O)C7)CC1)C(=O)O)C(=O)O` (some centres unmarked) [Example 1-B-232Th, {3-[(naphthalen-2-yl)methyl]-1,4,12-trioxo-1-{4-[(2-{4,7,10-tris[(carboxy-kappaO)methyl]-1,4,7,10-tetraazacyclododecan-1-yl-kappa^4N^1,N^4,N^7,N^10}acetamido)methyl]cyclohexyl}-2,5,11,13-tetraazahexadecane-10,14,16-tricarboxylato(4−)}thorium(3+)], for which the “% remaining 3H-PSMA-617 @ 10 nM (mean)” value under setting [1] is given as 71%. Besides, under setting [2], the “% remaining 3H-PSMA-617 @ 100 nM (mean)” value is reported as 12%.
As to `COc1ccc(CC(NC(=O)[C@H]2CC[C@H](CN)CC2)C(=O)NCCCC[C@H](NC(=O)N[C@@H](CCC(=O)O)C(=O)O)C(=O)O)cc1OC` (stereo partly drawn) [Example 19-A, N^6—{N-[(1r,4S)-4-(aminomethyl)cyclohexane-1-carbonyl]-3-methoxy-O-methyl-L-tyrosyl}-N^2-{[(1S)-1,3-dicarboxypropyl]carbamoyl}-L-lysine], the remaining activity at 0.01 µM under setting [1] was found to be 84%. Under setting [2], the remaining activity at 0.1 µM worked out at 79%.
The like results for `NC[C@H]1CC[C@H](C(=O)N[C@@H](Cc2ccc(Br)cn2)C(=O)NCCCC[C@H](NC(=O)N[C@@H](CCC(=O)O)C(=O)O)C(=O)O)CC1` [Example 31-A, N^6—{N-[(1r,4S)-4-(aminomethyl)cyclohexane-1-carbonyl]-3-(5-bromopyridin-2-yl)-L-alanyl}-N^2-{[(1S)-1,3-dicarboxypropyl]carbamoyl}-L-lysine] were, in that order, 61% and 78%.
